According to patent publication US4311699A, “Aminoacid derivatives of cephalosporin compounds” (priority 1980, dated 1982):
Converted amounts (≈) assume the structure as drawn.

How the values were obtained:
Experiment in all cases: in vitro antibacterial activity, minimal inhibitory concentration
Assay type in all cases: cell-based
E. coli Vogel = conditions: for MIC: Escherichia coli
Description: (§1) The compounds of the invention are new chemical compounds that are used as pharmacological agents and especially as broad spectrum antibacterial agents. They are active in vitro against strains of both gram-positive and gram-negative bacteria.
(§2) Minimal Inhibitory Concentration (μg/ml)

E. coli Brig = conditions: for MIC: Escherichia coli
Description: as §1, §2

Entero. cloacae = conditions: for MIC: Enterobacter cloacae
Description: as §1, §2

Staph. aureus S18733 = conditions: for MIC: Staphylococcus aureus
Description: as §1, §2

Serr. marces. = test system: Serr. marces.
Description: as §1, §2

Pseudomonas UI 18 = conditions: Pseudomonas UI 18, in vitro; for MIC: UI18
Description: as §1, §2

Strep. fec. = test system: Strep. fec.
Description: as §1, §2

Pseudomonas #28 = conditions: Pseudomonas #28, in vitro; for MIC: read-out: Minimal Inhibitory Concentration
Description: as §1, §2

Pseudomonas BRK 12-4-4 = conditions: Pseudomonas BRK 12-4-4, in vitro; for MIC: BRK1244
Description: as §1, §2

Staph. aureus UC-76 = conditions: Staph. aureus UC-76, in vitro; for MIC: Staphylococcus aureus, UC76
Description: as §1, §2

Klebs. pneu. = test system: Klebs. pneu.
Description: as §1, §2

Prot. vulg. = test system: Prot. vulg.
Description: as §1, §2

Row | Compound | MIC (E. coli Vogel) [µg/mL] | MIC (E. coli Brig) [µg/mL] | MIC (Entero. cloacae) [µg/mL] | MIC (Staph. aureus S18733) [µg/mL] | MIC (Serr. marces.) [µg/mL] | MIC (Pseudomonas UI 18) [µg/mL] | MIC (Strep. fec.) [µg/mL] | MIC (Pseudomonas #28) [µg/mL] | MIC (Pseudomonas BRK 12-4-4) [µg/mL] | MIC (Staph. aureus UC-76) [µg/mL] | MIC (Klebs. pneu.) [µg/mL] | MIC (Prot. vulg.) [µg/mL] | other results
1 | CC(=O)N[C@H](C)C(=O)Nc1ccc(-c2ncc(C(=O)N[C@@H](C(=O)NC3C(=O)N4C(C(=O)O)=C(CSc5nnnn5C)CSC34)c3ccc(O)cc3)c(O)n2)cc1 (stereo partly drawn) [Example 31, N-[2[4-(N-Acetyl-D-alanylamino)phenyl]-4-hydroxy-5-pyrimidinyl-carbonyl]-7-[D-2-amino-2-(4-hydroxyphenyl)acetamido]-3-[[(1-methyl-1H-tetrazol-5-yl)thiol]methyl]-3-cephem-4-carboxylic acid] | 1.6 (≈ 1.99 µM) | 6.3 (≈ 7.84 µM) | 6.3 (≈ 7.84 µM) | 6.3 (≈ 7.84 µM) | 50 (≈ 62.2 µM) | 3.1 (≈ 3.86 µM) | 25 (≈ 31.1 µM) | 3.1 (≈ 3.86 µM) | 3.1 (≈ 3.86 µM) | 3.1 (≈ 3.86 µM) | 1.6 (≈ 1.99 µM) | 6.3 (≈ 7.84 µM) | 
2 | CC(=O)N[C@H](C)C(=O)Nc1ccc(-c2ncc(C(=O)N[C@@H](C(=O)N[C@@H]3C(=O)N4C(C(=O)O)=C(COC(C)=O)CS[C@H]34)c3ccccc3)c(O)n2)cc1 [Example 1, N-[2-[4-(N-Acetyl-D-alanylamino)phenyl]-4-hydroxy-5-pyrimidinyl-carbonyl]-7-[D-2-amino-2-phenylacetamido]-3-acetoxymethyl-3-cephem-4-carboxylic acid] | 6.3 (≈ 8.61 µM) | 25 (≈ 34.2 µM) | 50 (≈ 68.3 µM) | 3.1 (≈ 4.24 µM) | 12.5 (≈ 17.1 µM) | 3.1 (≈ 4.24 µM) | 50 (≈ 68.3 µM) | 3.1 (≈ 4.24 µM) | 3.1 (≈ 4.24 µM) | 0.8 (≈ 1.09 µM) | 200 (≈ 273 µM) | 12.5 (≈ 17.1 µM) | 
3 | CC(=O)NC(C)C(=O)Nc1ccc(-c2ncc(C(=O)N[C@@H](C(=O)NC3C(=O)N4C(C(=O)O)=C(CSc5nnnn5C)CSC34)c3ccccc3)c(O)n2)cc1 (mixture of isomers) [Example 24, N-[2-[4-(N-Acetyl-DL-alanylamino)phenyl]-4-hydroxy-5-pyrimidinylcarbonyl]-7-[D-2-amino-2-phenylacetamido]-3-[[(1-methyl-1H-tetrazol-5-yl)thio]methyl]-3-cephem-4-carboxylic acid] | 3.1 | 12.5 | 12.5 | 3.1 | 50 | 6.3 | 50 | 6.3 | 12.5 | 1.6 | 1.6 | 25 | 
4 | CC(=O)N[C@H](C)C(=O)Nc1ccc(-c2ncc(C(=O)N[C@@H](C(=O)N[C@@H]3C(=O)N4C(C(=O)O)=C(COC(C)=O)CS[C@H]34)c3cccs3)c(O)n2)cc1 [Example 19, N-[2-[4-(N-Acetyl-D-alanylamino)phenyl]-4-hydroxy-5-pyrimidinylcarbonyl]-7-[D-2-amino-2-(2-thienyl)acetamido]-3-acetoxymethyl-3-cephem-4-carboxylic acid] | 12.5 (≈ 16.9 µM) | > 50 | 50 (≈ 67.8 µM) | 1.6 (≈ 2.17 µM) | > 50 | 6.3 (≈ 8.54 µM) | 25 (≈ 33.9 µM) | 6.3 (≈ 8.54 µM) | 6.3 (≈ 8.54 µM) | 0.8 (≈ 1.08 µM) | 12.5 (≈ 16.9 µM) | 25 (≈ 33.9 µM) | 
5 | CC(=O)N[C@@H](C)C(=O)Nc1ccc(-c2ncc(C(=O)N[C@@H](C(=O)NC3C(=O)N4C(C(=O)O)=C(CSc5nnnn5C)CSC34)c3ccccc3)c(O)n2)cc1 (stereo partly drawn) [Example 26, N-[2-[4-(N-Acetyl-L-alanylamino)phenyl]-4-hydroxy-5-pyrimidinylcarbonyl]-7-[D-2-amino-2-phenylacetamido]-3-[[(1-methyl-1H-tetrazol-5-yl)thio]methyl]-3-cephem-4-carboxylic acid] | 3.1 (≈ 3.93 µM) | 12.5 (≈ 15.9 µM) | 12.5 (≈ 15.9 µM) | 12.5 (≈ 15.9 µM) | 50 (≈ 63.5 µM) | 12.5 (≈ 15.9 µM) | 50 (≈ 63.5 µM) | 6.3 (≈ 8 µM) | 12.5 (≈ 15.9 µM) | 6.3 (≈ 8 µM) | 6.3 (≈ 8 µM) | 12.5 (≈ 15.9 µM) | 
6 | CC(=O)NC(C)C(=O)Nc1ccc(-c2ncc(C(=O)N[C@@H](C(=O)NC3C(=O)N4C(C(=O)O)=C(CSc5nnc(C)s5)CSC34)c3ccccc3)c(O)n2)cc1 (mixture of isomers) [Example 40, N-[2-[4-(N-Acetyl-DL-alanylamino)phenyl]-4-hydroxy-5-pyrimidinylcarbonyl]-7-[D-2-amino-2-phenylacetamido]-3-[[(5-methyl-1,3,4-thiadiazoyl-2-thio]methyl]-3-cephem-4-carboxylic acid] | 3.1 | 12.5 | 25 | 3.1 | 50 | 6.3 | 25 | 12.5 | 12.5 | 0.4 | 3.1 | 50 | 
7 | CC(=O)NCC(=O)Nc1ccc(-c2ncc(C(=O)N[C@@H](C(=O)NC3C(=O)N4C(C(=O)O)=C(CSc5nnnn5C)CSC34)c3ccccc3)c(O)n2)cc1 (stereo partly drawn) [Example 22] | 0.8 (≈ 1.03 µM) | 6.3 (≈ 8.14 µM) | 6.3 (≈ 8.14 µM) | 3.1 (≈ 4.01 µM) | 50 (≈ 64.6 µM) | 12.5 (≈ 16.2 µM) | 50 (≈ 64.6 µM) | 6.3 (≈ 8.14 µM) | 12.5 (≈ 16.2 µM) | 1.6 (≈ 2.07 µM) | 0.8 (≈ 1.03 µM) | 6.3 (≈ 8.14 µM) | 
8 | O=C(O)Cn1nnnc1SCC1=C(C(=O)O)N2C(=O)C(NC(=O)[C@H](NC(=O)c3cnc(-c4ccc(NC(=O)CN5CCCC5=O)cc4)nc3O)c3ccccc3)C2SC1 (stereo partly drawn) [Example 42] | 3.1 (≈ 3.67 µM) | 6.3 (≈ 7.47 µM) | 6.3 (≈ 7.47 µM) | 25 (≈ 29.6 µM) | 50 (≈ 59.3 µM) | 6.3 (≈ 7.47 µM) | > 50 | 6.3 (≈ 7.47 µM) | 12.5 (≈ 14.8 µM) | 12.5 (≈ 14.8 µM) | 3.1 (≈ 3.67 µM) | 1.6 (≈ 1.9 µM) | 
9 | CC(=O)N1C[C@H](O)C[C@H]1C(=O)Nc1ccc(-c2ncc(C(=O)N[C@@H](C(=O)NC3C(=O)N4C(C(=O)O)=C(CSc5nnnn5C)CS[C@H]34)c3ccccc3)c(O)n2)cc1 (stereo partly drawn) [Example 30, N-[2[4-(N-Acetyl-L-hydroxyprolylamino)phenyl]-4-hydroxy-5-pyrimidinylcarbonyl]-7-[D-2-amino2-phenylacetamido]-3-[[(1-methyl-1H-tetrazol-5-yl)thio]methyl]-3-cephem-4-carboxylic acid] |  |  |  |  |  |  |  |  |  |  |  |  | Minimal Inhibitory Concentration (E. coli Vogel): 3.1 µg/mL; Minimal Inhibitory Concentration (E. coli Brig): 12.5 µg/mL; Minimal Inhibitory Concentration (Entero. cloacae): 6.3 µg/mL; Minimal Inhibitory Concentration (Staph. aureus S18733): 12.5 µg/mL; Minimal Inhibitory Concentration (Serr. marces.): > 50 µg/mL; Minimal Inhibitory Concentration (Pseudomonas UI 18): 6.3 µg/mL; Minimal Inhibitory Concentration (Strep. fec.): > 50 µg/mL; Minimal Inhibitory Concentration (Pseudomonas #28): 6.3 µg/mL; Minimal Inhibitory Concentration (Pseudomonas BRK 12-4-4): 12.5 µg/mL; Minimal Inhibitory Concentration (Staph. aureus UC-76): 3.1 µg/mL; Minimal Inhibitory Concentration (Klebs. pneu.): 3.1 µg/mL; Minimal Inhibitory Concentration (Prot. vulg.): 25 µg/mL
10 | CC(=O)NC(C)C(=O)Nc1ccc(-c2ncc(C(=O)N[C@@H](C(=O)N[C@@H]3C(=O)N4C(C(=O)O)=C(COC(C)=O)CS[C@H]34)c3ccc(O)cc3)c(O)n2)cc1 (mixture of isomers) [Example 9, N-[2-[4-(N-Acetyl-DL-alanylamino)phenyl]-4-hydroxy-5-pyrimidinylcarbonyl]-7-[D-2-amino-2-(4-hydroxyphenyl)acetamido]-3-acetoxymethyl-3-cephem-4-carboxylic acid] | 12.5 | 50 | 50 | 6.3 | > 50 | 3.1 | 50 | 1.6 | 3.1 | 3.1 | 12.5 | 12.5 | 
11 | C[C@@H](N)C(=O)Nc1ccc(-c2ncc(C(=O)N[C@@H](C(=O)NC3C(=O)N4C(C(=O)O)=C(CSc5nnnn5CC(=O)O)CSC34)c3ccccc3)c(O)n2)cc1 (stereo partly drawn) [Example 38, N-[2-[4-(D-Alanylamino)phenyl]-4-hydroxy-5-pyrimidinylcarbonyl]-7-[D-2-amino-2-phenylacetamido]-3-[[(1-carboxymethyl-1H-tetrazol-5-yl)thio]-methyl]-3-cephem-4-carboxylic acid] | 0.8 (≈ 1.01 µM) | 6.3 (≈ 7.98 µM) | 6.3 (≈ 7.98 µM) | 12.5 (≈ 15.8 µM) | 25 (≈ 31.7 µM) | 3.1 (≈ 3.92 µM) | > 50 | 3.1 (≈ 3.92 µM) | 3.1 (≈ 3.92 µM) | 6.3 (≈ 7.98 µM) | 6.3 (≈ 7.98 µM) | 0.8 (≈ 1.01 µM) | 
12 | CC(=O)NC(CCC(N)=O)C(=O)Nc1ccc(-c2ncc(C(=O)N[C@@H](C(=O)NC3C(=O)N4C(C(=O)O)=C(CSc5nnnn5C)CSC34)c3ccccc3)c(O)n2)cc1 (mixture of isomers) [Example 23, N-[2-[4-(N-Acetyl-DL-glutaminylamino)phenyl]-4-hydroxy-5-pyrimidinylcarbonyl]-7-[D-2-amino-2-phenylacetamido]-3-[[1-methyl-1H-tetrazol-5-yl)thio]methyl]-3-cephem-4-carboxylic acid] | 0.8 | 3.1 | 6.3 | 12.5 | 50 | 6.3 | 50 | 6.3 | 12.5 | 3.1 | 3.1 | 12.5 | 
13 | CC(=O)NCCC(=O)Nc1ccc(-c2ncc(C(=O)N[C@@H](C(=O)N[C@@H]3C(=O)N4C(C(=O)O)=C(COC(C)=O)CS[C@H]34)c3ccccc3)c(O)n2)cc1 [Example 3] | 12.5 (≈ 17.1 µM) | 25 (≈ 34.2 µM) | 50 (≈ 68.3 µM) | 6.3 (≈ 8.61 µM) | < 50 | 6.3 (≈ 8.61 µM) | 50 (≈ 68.3 µM) | 6.3 (≈ 8.61 µM) | 12.5 (≈ 17.1 µM) | 1.6 (≈ 2.19 µM) | 12.5 (≈ 17.1 µM) | 12.5 (≈ 17.1 µM) | 
